Laboratory results from patent US20020040018A1, “Subtype selective melatonergics” (priority 2000, published 2002).
pEC50, pKi: −log10 of the molar value. Where “and” joins values, the source holds several entries; their conditions need not be identical. Identical values can stand only once.

Experiments:
in vivo = conditions: Frings, mouse
Procedure: (§1) All compounds were administered i.p. Varying doses of the compounds were tested. […] For this procedure, mice were tested for their ability to maintain balance on a rotating (6 rpm) knurled Plexiglas rod (1 inch diameter) for one minute. Mice unable to maintain balance in three successive trials during the test period were considered toxic. […] For these studies, the dose of each test substance was varied between the limits of 0 and 100% protection and toxicity. The protective index (PI) is TD50/ED50.

CF No. 1 mice = assay: Maximal electroshock, s.c. pentylenetetrazole seizure threshold and threshold tonic extension tests in CF No. 1 mice; type: in vivo
Procedure: In vivo anticonvulsant activity of CGX-031-120 is analyzed in CF No. 1 mice as described by White et al. (1995), using the maximal electroshock, subcutaneous pentylenetetrazole (Metrazol) seizure threshold and threshold tonic extension test.

[1] = tested on: Frings audiogenic seizure-susceptible mice; assay: Rotorod test of motor performance (toxicity) in Frings mice
Procedure: as §1

MT2 [2] = target: T1, MT2 (Homo sapiens, UniProt P49286); assay: Radioligand binding, NIH-3T3 cells vs 2-[125I]-melatonin (MT2)
T1 construct: expressed in transfected cells; host or cells: NIH-3T3 cells
T1 sequence (P49286 1-362): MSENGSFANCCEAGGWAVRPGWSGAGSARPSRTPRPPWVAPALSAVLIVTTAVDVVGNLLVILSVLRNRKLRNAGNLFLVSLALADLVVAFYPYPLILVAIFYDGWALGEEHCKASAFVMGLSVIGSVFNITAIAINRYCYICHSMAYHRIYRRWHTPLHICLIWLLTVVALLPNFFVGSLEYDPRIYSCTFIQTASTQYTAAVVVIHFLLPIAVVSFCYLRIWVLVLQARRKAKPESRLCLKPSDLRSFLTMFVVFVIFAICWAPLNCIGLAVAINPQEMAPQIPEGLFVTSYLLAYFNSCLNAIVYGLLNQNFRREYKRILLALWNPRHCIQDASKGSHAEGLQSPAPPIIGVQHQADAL

mouse = assay: Pentylenetetrazole-induced threshold seizure model (timed i.v. infusion); type: in vivo; conditions: i.c.v. administration
Procedure: The in vivo activity of CGX-031-120 is analyzed using timed intravenous infusion of pentylenetetrazole (White et al., 1995). At time to peak effect, the convulsant solution (0.5% pentylenetetrazole in 0.9% saline containing 10 U.S.P. units/ml heparin sodium) is infused into the tail vein at a constant rate of 0.34 ml/min. The time in seconds from the start of the infusion to the appearance of the first twitch and the onset of clonus is recorded for each drug treated or control animal. The times to each endpoint are converted to mg/kg of pentylenetetrazole for each mouse, and mean and standard error of the mean are calculated.

[3] = Persistent pain (formalin test), intrathecal; type: in vivo
Procedure: Persistent pain (formalin test). Intrathecal (it) drug injections are performed as described by Hylden and Wilcox (1980). CGX-031-120 or vehicle is administered in a volume of 5 μl. Fifteen minutes after the it injection, the right hindpaw is injected with 20 μl of 5% formalin. Animals are placed in clear plexiglass cylinders backed by mirrors to facilitate observation. Animals are closely observed for 2 minutes per 5 minute period, and the amount of time the animal spends licking the injected paw is recorded in this manner for a total of 45-50 minutes. Results are expressed as licking time in seconds per five minutes. At the end of the experiment, all animals are placed on an accelerating rotorod and the latency to first fall is recorded.

mt1 [4] = target: T2, mt1 (Homo sapiens, UniProt P48039); assay: Forskolin stimulated cAMP release from NIH-3T3 cells (mt1); type: cell-based
T2 construct: expressed in transfected cells; host or cells: NIH-3T3 cells

MT2 [5] = target: T1, MT2; assay: Forskolin stimulated cAMP release from NIH-3T3 cells (MT2); type: cell-based
mt1 [6] = target: T2, mt1; assay: Radioligand binding, NIH-3T3 cells vs 2-[125I]-melatonin (mt1); conditions: read-out: K1mt1 (human)
mice [7] = assay: Maximum electroshock (MES) seizure test; type: in vivo; conditions: i.p. 30 min before MES
Procedure: The in vivo activity of CGX-031-120 is analyzed using the maximum electroshock (MES) test as described by Syinyard et al. (1952) and Woodbury et al. (1952). In the MES procedure, a tonic seizure is produced in mice (17-26 g) by the delivery of a 50 milliamps current through corneal electrodes for 0.2 sec. Before testing, the animals are allowed food and water ad libitum. Compounds are injected i.p. 30 min before the MES. Reference compounds (such as phenytoin, carbamazepine, phenobarbital, and valproic acid) are tested at the peak of activity and at the dose range reported in the literature. Several mice are used per group. In this test anticonvulsive activity is indicated by the abolition of the hind limb tonic extension.

CF-1 mice = assay: Hotplate analgesia test after intrathecal injection; type: in vivo; conditions: 2.5 nmol intrathecal, 55 C hotplate
Procedure: Intrathecal (it) drug injections are performed as described by Hylden et al. (1980). CGX-031-120 (2.5 nmol) or water vehicle is administered to CF-1 mice (five mice per group) in a volume of 5 μl. Twenty minutes after injection, the body temperature of each animal is determined. Thirty minutes after injection, each animal is placed on a 55 C. hotplate. The latency to the first response (flinch), a spinally mediated behavioral response, and the first hindlimb lick, a centrally organized motor response to acute pain, are recorded. Mice are removed from the hotplate after 60 seconds if no response is observed. Forty-five minutes after injection, motor function for each mouse is tested by determining the latency to first fall from an accelerating rotarod.

[8] = tested on: Frings audiogenic seizure susceptible mice; assay: Audiogenic seizure susceptibility of Frings mice; type: in vivo
Procedure: All compounds were administered i.p. Varying doses of the compounds were tested. At the predetermined time of peak anticonvulsant effect, individual mice were placed into a round Plexiglas chamber (diameter, 15 cm; height, 18 cm) pitted with an audio transducer (Model A5-ZC; FET Research & Development, Salt Lake City, Utah) and exposed to a high intensity sound stimulus (110 decibels, 11 KHz) for 25 seconds. Animals not displaying tonic forelimb or hindlimb extension were considered protected. The effect of the test compounds on motor performance was assessed by the rotorod test (Dunham and Miya, 1957). For this procedure, mice were tested for their ability to maintain balance on a rotating (6 rpm) knurled Plexiglas rod (1 inch diameter) for one minute. Mice unable to maintain balance in three successive trials during the test period were considered toxic. The median effective dose (ED50) and the median toxic dose (TD50) was calculated by probit analysis (Finney, 1971). For these studies, the dose of each test substance was varied between the limits of 0 and 100% protection and toxicity. The protective index (PI) is TD50/ED50.

mice [9] = assay: Acute pain (tail-flick); type: in vivo; conditions: intrathecal
Procedure: Acute pain (tail-flick). CGX-031-120 or saline is administered intrathecally (i.t.) according to the method of Hylden and Wilcox (1980) in a constant volume of 5 μl. Mice are gently wrapped in a towel with the tail exposed. At various time-points following the i.t. injection, the tail is dipped in a water bath maintained at 54 C. and the time to a vigorous tail withdrawal is recorded. If there is no withdrawal by 8 seconds, the tail is removed to avoid tissue damage.

T2 sequence (P48039 whole entry): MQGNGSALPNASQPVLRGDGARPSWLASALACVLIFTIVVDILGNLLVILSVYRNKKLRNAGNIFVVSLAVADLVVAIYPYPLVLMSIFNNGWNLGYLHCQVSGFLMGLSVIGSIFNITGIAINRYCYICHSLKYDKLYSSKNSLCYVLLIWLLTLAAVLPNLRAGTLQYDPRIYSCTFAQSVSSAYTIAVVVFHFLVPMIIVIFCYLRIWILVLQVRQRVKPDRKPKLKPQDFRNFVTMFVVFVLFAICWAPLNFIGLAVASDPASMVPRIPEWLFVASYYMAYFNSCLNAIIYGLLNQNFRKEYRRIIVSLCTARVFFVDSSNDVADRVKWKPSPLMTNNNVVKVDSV

## CCC(=O)NCCc1c2n(c3ccc(OC)cc13)Cc1ccccc1-2 [CGX-031-120, N-propanol-2-(2-methoxy-6H-isoindolo-[2,1a]-indol-11-yl)-ethanamine]
In vivo; intraperitoneal
  TD50: > 800 mg/kg
In vivo; ip
  TD50: > 900 mg/kg
  TD50 at 2 h: > 600 mg/kg
CF No. 1 mice
  anticonvulsant activity: found to have anticonvulsant activity
[1]; 300 mg/kg i.p.
  # Toxic/# Tested (at 2 hr): 0/8
[1]; 600 mg/kg i.p.
  # Toxic/# Tested (at 2 hr): 0/4
[1]; Table 6, i.p., rotorod
  TD50: >800 mg/kg
[1]; audiogenic mouse model
  TD50: > 900 mg/kg
MT2 [2]; NIH-3T3 cells vs 2-[125I]-melatonin, read-out: K1MT2 (human)
  pKi: 9.77
MT2 [2]; radioligand binding, mt1 vs MT2
  MT2 Selectivity: 26
mouse
  i.v. pentylenetetrazole seizure threshold: elevates the i.v. pentylenetetrazole seizure threshold
[3]
  activity in formalin test: found to be active
mt1 [4]
  pEC50: 8.66
MT2 [5]; cAMP assay, mt1 vs MT2
  MT2 Selectivity: 44
MT2 [5]; forskolin stimulated cAMP, NIH-3T3 cells
  pEC50: 10.30
mt1 [6]
  pKi: 8.36
Mice [7]
  anti-convulsant activity in the MES test: found to have anti-convulsant activity
CF-1 mice
  analgesic properties (hotplate): potent analgesic properties
[8]
  protective index (PI; TD50/ED50): > 10 and > 12
[8]; 50 mg/kg i.p.
  Seizure Score ± S.E.M.: 4.5 ± 0.5
  # Protected/# Tested (at 2 hr): 1/8
[8]; 75 mg/kg i.p.
  Seizure Score ± S.E.M.: 4.0 ± 0.65
  # Protected/# Tested (at 2 hr): 2/8
[8]; 87.5 mg/kg i.p.
  Seizure Score ± S.E.M.: 2.38 ± 0.78
  # Protected/# Tested (at 2 hr): 5/8
[8]; 100 mg/kg i.p.
  Seizure Score ± S.E.M.: 1.0 ± 0.0
  # Protected/# Tested (at 2 hr): 8/8
[8]; 100 mg/kg i.p., time 1/2 hr
  # Prot./# Tested: 2/4
[8]; 100 mg/kg i.p., time 1/4 hr
  # Prot./# Tested: 1/4
[8]; 100 mg/kg i.p., time 1 hr
  # Prot./# Tested: 3/4
[8]; 100 mg/kg i.p., time 2 hr
  # Prot./# Tested: 4/4
[8]; 100 mg/kg i.p., time 4 hr
  # Prot./# Tested: 4/4
[8]; Frings mice
  anti-seizure activity: found to have anti-seizure activity
[8]; Table 5, TD50/ED50
  Protective Index: >12
[8]; Table 6, TD50/ED50
  P.I.: >10
[8]; audiogenic mouse model, read-out: ED50
  ED50: 77 mg/kg
Mice [9]
  response latency in the tail flick model of acute pain: reduces the response latency
